The results in this text go back to patent publication US20080124310A1, “Bead based receptor biology” (priority 2006, published 2008).

Where only a bound is given, the exact number is not on record here.

Common to all, as to assay type: cell-based, murine
Assay [1] relates to RAW 264.7 macrophages. The assay is described as follows: Phagocytic receptor assay: engulfment of IgG or ligand coated particles by RAW macrophages (foam cell model), confocal. The text has this: FIG. 25, panels A and B, illustrate respectfully a method for measurement of phagocytic receptors and a method for measuring transfection or delivery of nucleic acids and simultaneous measurement of particle engulfment using a single cell multi label confocal microscope experiment. A direct or surrogate measurement of receptor function or receptor pathway activity must be made in order establish the role of potential therapeutic target proteins in receptor function. IgG, complement, low density lipoprotein (LDL), oxidatively modified LDL (OX-LDL). Acetyl-LDL, apolipoproteins, lipoproteins, lipopolysaccharide (LPS), scavenger and other receptor functions can be measured by the accumulation of particles. The particles may themselves be comprised in part of fluorescent materials or can be directly stained with fluorescent or other colored materials or can be bound by proteins that directly or indirectly permit the attachment of fluorescent, chemiluminescent or other reporter molecules. The beads may be stained in live cells or cells fixed with formalin or paraformaldehyde or organic solvents such as alcohol and acids or by other means. The beads can be stained both before or after internalization with or without the permeabilization of the cells by detergents or organic solvents. The beads may be cells that can be lysed and imaged directly. The cells may be counter stained for the presence of specific proteins using antibodies or may express fluorescent protein constructs or contain fluorescent silencing RNA or DNA constructs or biopolymer modulating agents or drugs (FIG. 25).
We created a foam cell model and quantitative confocal assays for micro particle engulfment by macrophages. The engulfment of particles by macrophages and the generation of free radicals by leukocytes are the key physiological actions that lead to the generation of foam cells that are the center of atherosclerotic plaques. We made a cellular model system of foam cells or activated leukocytes and examine the effects of moderate levels of alcohol over time on the accumulation of particles and generation of free radicals at the site of particle accumulation compared to statins and propranolol. The model systems will consist of RAW macrophages that engulf hydrophobic polystyrene microparticles with or without coating by ligands or mixtures of ligands such as those found in cellular growth media, or free fluorescently labeled DI-LDL, OX-LDL, Acetyl LDL or other. Live cell confocal microscopy was used to quantify the effects of ethanol, compared to lovastatin and propranolol, on particle engulfment.
External particles were stained green with secondary anti rabbit FITC and then cells were permeablized and all particles stained red with secondary anti rabbit CY3. Thus engulfed particles appear red while external particles appear yellow. Beads within the cells carrying only the red signal (engulfed) and not also the green signal {red+green=yellow} (outside) were quantified for accumulation assays using both total fluorescence in the green channel and by counting individual beads in three fields on three independent cover slips for each concentration.
(§1) RAW 264.7 macrophages were cultured in alpha MEM with 5% fetal calf serum as described. The effects of lovastatin on IgG and LDL coated micro-particle engulfment at 0, 50 nM, 100 nM, 500 nM, 1 mM and higher was tested. The accumulation of free DI-LDL was quantified directly by its red fluorescence. External particles were stained green with secondary anti rabbit FITC and then cells were permeablized and all particles stained red with secondary anti rabbit CY3. Thus engulfed particles appear red while external particles appear yellow.

Assay [2] has as its system RAW 264.7 macrophages. Description: Uptake of free fluorescent DI-LDL or OX-LDL, red fluorescence confocal microscopy. The following applies: 594 nm. Here is the method:
as §1, with “yellow. Beads within the cells carrying only the red signal (engulfed) and not also the green signal {red+green=yellow} (outside) were quantified for accumulation assays using both total fluorescence in the green channel and by counting individual beads in three fields on three independent cover slips for each concentration.” for “yellow.”

For a further assay, the system named is Thrombospondin. The assay is described as follows: Surface expression of thrombospondin on macrophages. The text has this:
Thrombospondin is a protein that is known to bind apolipoprotein and lipid receptors expressed on the surface of cells including the scavenger receptor class B multi ligand receptor CD36 associated with atherosclerosis and Alzheimer's.

Another assay has as its system RAW macrophages. The assay is described as follows: Biochemical measurement of protein levels in fractions of drug treated RAW macrophages. The text has this:
A now well established side effect of ethanol is to prevent heart attack. Thus the common effects of statins, propranolol, and ethanol must be closely linked to the central mechanism that is the most important pharmacological target of heart attack and thus atherosclerosis prevention. It remains possible that the preventative effect of statins results from their effect to inhibit particle engulfment and foam cell formation by macrophages leading to atherosclerotic plaques. We created a foam cell model and quantitative confocal assays for micro particle engulfment by macrophages. The engulfment of particles by macrophages and the generation of free radicals by leukocytes are the key physiological actions that lead to the generation of foam cells that are the center of atherosclerotic plaques. We have made a cellular model system of leukocytes or activated leukocytes or leukocytes treated over time to examine the effects drugs and biopolymer modification materials over time on the activation of receptors at the site of modified or ligand coated particles. The drugs used in this system to examine the kinetics of receptor function at modified particles may result in changes to the cell including changes in gene expression at the level of DNA transcription, RNA production, accumulation or post-transcription processing, mRNA production accumulation or expression all of which may also alter protein expression. We examined the use of these model systems with and without beads as a system to screen the effects of drugs that are known to prevent heart attack and stroke in model of leukocyte cells within atherosclerotic plaques. We observe that drugs that effect receptor associated signaling may also alter gene, RNA or ultimately protein expression in cells resulting in changes in protein levels. Proteins that change levels in response to a drug may be themselves drug target proteins.
The drugs used in the leukocyte model system to examine the kinetics of receptor function at modified particles may result in changes to the cell including changes in gene expression at the level of DNA transcription, RNA production, accumulation or post-transcription processing, mRNA production accumulation or expression all of which may also alter protein expression. We examined the use of these model systems with and without beads as a system to screen the effects of drugs that are known to effect receptor response at or near the cell surface or interior of the cells. We observe that drugs that effect receptor associated signaling may also alter gene, RNA or ultimately protein expression in cells resulting in changes in protein levels. Proteins that change levels in response to a drug may be themselves drug target proteins. […] The RAW leukocyte model foam cells system alone or in combination with the bead based biology system can be used to characterize the effects of receptor or cellular activation in terms of second messengers such as lipid and protein phosphorylation with respect to drug treatment or time in the cytosol of leukocytes (FIG. 67).

For the molecule `CC[C@H](C)C(=O)O[C@H]1C[C@@H](C)C=C2C=C[C@H](C)[C@H](CC[C@@H]3C[C@@H](O)CC(=O)O3)[C@H]21` [lovastatin], the “engulfment / accumulation of IgG or ligand coated particles” value in the assay with RAW 264.7 macrophages [1] (RAW macrophages, confocal) was “reduced the capacity of RAW macrophages to engulf particles”. For the same molecule, the “dose that directly prevents engulfment of particles” value with RAW 264.7 macrophages [1] (cultured macrophage leukocytes) is no more than 100 nM. Also, in the assay on RAW 264.7 macrophages [2], the “accumulation of free cholesterol (free fluorescent DI-LDL or OX-LDL)” value is reported as “no effect”. Further, the “expression of Thrombospondin on the cell surface” value in the assay on Thrombospondin is on record as “lowered the expression of Thrombospondin”. Besides, the “levels of cytosolic proteins (FIG. 57)” value in the assay on RAW macrophages (cytosol fraction) was “alter levels of proteins in the membranes”. Also, the “levels of proteins in the extracellular matrix (FIG. 55)” value in the assay with RAW macrophages (matrix fraction) was “alter levels of proteins in the extracellular matrix”. The “levels of proteins in the membranes (FIG. 54)” value in the assay with RAW macrophages (membrane fraction) is recorded as “alter levels of proteins in the membranes”. Moreover, the “levels of proteins in the secretions (FIG. 56)” value in the assay with RAW macrophages (secreted proteins) was “alter levels of proteins in the secretions”.
